This is an account of results in patent publication US20240025852A1, “T-TYPE CALCIUM CHANNEL MODULATORS AND METHODS OF USE THEREOF” (PRAXIS PRECISION MEDICINES, INC., priority 2020, published 2024).

SMILES strings stand for the structures.

The target in data set [1] is T1, Recombinant CYP3A4 Supersomes (Homo sapiens, UniProt P08684).
T1 construct: purchased
The experiment in a line: Recombinant CYP3A4 Clearance Assay. Conditions: for % of Control (intrinsic clearance relative to the control compound): observed CLint divided by average CLint of undeuterated control compound; for Half-Life / CLint: recombinant CYP3A4 50 pmol/mL, 1 μM substrate, NADPH; for Half-Life: 0-120 minutes; for CLint: control = geometric mean of 3 replicates. The data set is classed as in vitro ADME. The protocol:
The CYP3A4 Clearance Assay was performed to determine the stability of deuterated compounds described herein and calculate changes in clearance relative to the control compound (undeuterated compound) that has the following structure:
Recombinant CYP3A4 Supersomes were prepared in 100 mM potassium phosphate buffer (50 pmol/mL final recombinase) and 80 μL aliquots were delivered per well to 96-well reaction plates containing 10 μL/well stock working solution containing substrate at 10× final concentration in 0.1:9.9:90 DMSO:ACN:100 mM phosphate buffer. Final substrate concentration during incubation was 1 μM. Reaction mixtures were pre-incubated at 37° C. for 10 minutes, prior to addition of 10 μL/well of NADPH regenerating system to initiate the reaction (β-Nicotinamide adenine dinucleotide phosphate) or 100 mM phosphate as a buffer control.
Clearance assessments were performed for test compounds in singlicate except for the control compound, which was tested in triplicate. Incubations were maintained at 37° C. for 0, 5, 15, 30, 45, 60, 90, and 120 minutes (or 0 and 120 minutes for buffer control). The reactions were terminated with 3× volume of cold (4° C.) acetonitrile (ACN) containing 200 ng/mL tolbutamide and 200 ng/mL labetalol as internal standards (IS). The crash plates were centrifuged at 4000 rpm at 4° C. for 20 min to precipitate residual protein. Following protein precipitation, sample supernatants were harvested and 3× volume of HPLC grade water was added to each sample for chromatography purposes. Plates were sealed and shaken for 10 minutes prior to LC-MS/MS analysis using generic LCMS/MS conditions.
(§1) LC-MS/MS chromatograms were analyzed by peak area ratio (test article peak area/internal standard peak area) and natural log transformed, and plotted against time. The slope of the line was determined to calculate elimination rate constant. Subsequently, half-life (t1/2) and intrinsic clearance (CLint) were calculated using the following equations: […]
Average intrinsic clearance of the control compound was determined by taking the geometric mean of 3 replicates.

For data set [2], the system named is HμRELhumanPool 96-well hepatic co-culture. The experiment in a line: Hμrel Low Clearance Assay. The data set is classed as in vitro ADME, human. Set-up: % of Control (intrinsic clearance relative to the control compound): tested at 1 µM. Conditions: for Half-Life: human hepatic co-culture, 1 μM substrate, 0-72 hr incubation; for % of Control (intrinsic clearance relative to the control compound): observed CLint divided by average CLint of undeuterated control compound. The protocol:
(§2) The Hμrel Low Clearance Assay was performed to determine the stability of deuterated compounds described herein and calculate changes in clearance relative to the control compound (undeuterated compound) that has the following structure:
(§3) HμRELhumanPool™ 96-well hepatic co-culture plates were media changed and cells were allowed to acclimatize at 37° C. for 20 hr. HμREL® incubation media (serum free) and test compound diluted from a 1000×DMSO stock (final substrate concentration 1 μM; final DMSO concentration 0.1%) were added to the HμREL© 96-well co-culture system at a final cell number of 30,000 cells per well to initiate the reaction. The final incubation volume was 80 μL per time point and two control compounds were included for reference (ketoprofen and prednisolone). All clearance assessments were performed in singlicate with the exception of the undeuterated control compound, which was tested in duplicate on two separate days for a total of 4 replicates. Each compound was incubated for 0, 2, 6, 24, 48 and 72 hr. The reactions were terminated by transferring 60 μL of incubate to 180 μL acetonitrile containing internal standard at the appropriate time points. The crash plates were centrifuged at 3000 rpm at 4° C. for 20 min to precipitate residual protein. Following protein precipitation, sample supernatants were combined in cassettes of up to 4 compounds and analyzed using generic LCMS/MS conditions.
as §1
(§4) Average clearance of the control compound was determined by taking the geometric mean of 3 of the four replicates. The fourth replicate was excluded from the average determination as an outlier.

A short description of data set [3]: Hμrel Low Clearance Assay. The format is in vitro ADME, human. Details: % of Control (intrinsic clearance relative to the control compound): tested at 1 µM. Conditions: HμRELhumanPool 96-well hepatic co-culture, human hepatic co-culture, 1 μM substrate, 0-72 hr incubation, control = geometric mean of 3 replicates. The method, then:
as §2, §3, §1, §4

T1 sequence (P08684 whole entry): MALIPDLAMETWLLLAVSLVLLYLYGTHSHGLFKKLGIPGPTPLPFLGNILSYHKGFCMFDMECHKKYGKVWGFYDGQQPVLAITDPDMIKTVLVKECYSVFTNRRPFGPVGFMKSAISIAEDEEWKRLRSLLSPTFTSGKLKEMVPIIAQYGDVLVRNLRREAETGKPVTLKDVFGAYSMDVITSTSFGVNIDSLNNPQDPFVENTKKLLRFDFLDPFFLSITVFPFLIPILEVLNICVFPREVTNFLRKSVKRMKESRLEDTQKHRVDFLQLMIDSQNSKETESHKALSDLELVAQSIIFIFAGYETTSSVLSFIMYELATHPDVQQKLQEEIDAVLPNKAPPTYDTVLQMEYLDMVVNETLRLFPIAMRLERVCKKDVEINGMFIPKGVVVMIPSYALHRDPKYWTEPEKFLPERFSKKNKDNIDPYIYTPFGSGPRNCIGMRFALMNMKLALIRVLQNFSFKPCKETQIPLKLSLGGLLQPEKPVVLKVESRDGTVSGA

For the compound `[2H]C1([2H])N(CC(=O)NC(C)(C)C)C([2H])([2H])C([2H])([2H])C([2H])(CNC(=O)c2cc(F)cc(Cl)c2)C1([2H])[2H]` [Compound 1, N-[[1-[2-(tert-butylamino)-2-oxo-ethyl]-2,2,3,3,4,5,5,6,6-nonadeuterio-4-piperidyl]methyl]-3-chloro-5-fluoro-benzamide], in data set [1], the “% of Control (intrinsic clearance relative to the control compound)” value was 65.3%, the Half-Life worked out at 12.1 min and the CLint came out at 1.15 µL/min/pmol. Besides, in data set [2], the Half-Life turned out to be 3430 min and the “% of Control (intrinsic clearance relative to the control compound)” value is on record as 38.1%. Also, in data set [3] (human), the hepatocyte CLint (in general, the capacity of the preparation to metabolise the compound, expressed as a volume cleared per time) at 1 μM is 0.539 µL/min/1e6 cells.
`[2H]C1([2H])CC(CNC(=O)c2cc(F)cc(Cl)c2)CC([2H])([2H])N1CC(=O)NC(C)(C)C` [Compound 2, N-[[1-[2-(tert-butylamino)-2-oxo-ethyl]-2,2,6,6-tetradeuterio-4-piperidyl]methyl]-3-chloro-5-fluoro-benzamide]: in data set [1], the “% of Control (intrinsic clearance relative to the control compound)” value amounted to 68.5%, the Half-Life stood at 11.5 min and the CLint was 1.21 µL/min/pmol. Also, in data set [2], the Half-Life stood at 1530 min and the “% of Control (intrinsic clearance relative to the control compound)” value was determined as 85.5%. In data set [3], this compound gave a hepatocyte CLint at 1 μM of 1.21 µL/min/1e6 cells.
As for `[2H]C1([2H])CN(CC(=O)NC(C)(C)C)CC([2H])([2H])C1CNC(=O)c1cc(F)cc(Cl)c1` [Compound 3, N-[[1-[2-(tert-butylamino)-2-oxo-ethyl]-3,3,5,5-tetradeuterio-4-piperidyl]methyl]-3-chloro-5-fluoro-benzamide], in data set [1], the “% of Control (intrinsic clearance relative to the control compound)” value is reported as 82.3%, the Half-Life came out at 9.6 min and the CLint came to 1.45 µL/min/pmol. Moreover, in data set [2], the Half-Life worked out at 1260 min and the “% of Control (intrinsic clearance relative to the control compound)” value was 104%. This compound also yielded a hepatocyte CLint at 1 μM in data set [3] (human) of 1.47 µL/min/1e6 cells.
With `[2H]C([2H])(NC(=O)c1cc(F)cc(Cl)c1)C1CCN(CC(=O)NC(C)(C)C)CC1` [Compound 4, N-[[1-[2-(tert-butylamino)-2-oxo-ethyl]-4-piperidyl]-dideuterio-methyl]-3-chloro-5-fluoro-benzamide], in data set [1], the “% of Control (intrinsic clearance relative to the control compound)” value came to 98.6%, the Half-Life amounted to 8.0 min and the CLint turned out to be 1.74 µL/min/pmol. In data set [2], the Half-Life turned out to be 1230 min and the “% of Control (intrinsic clearance relative to the control compound)” value is reported as 106%. Also, in data set [3] (human), the hepatocyte CLint at 1 μM was determined as 1.5 µL/min/1e6 cells.
Consider `[2H]C([2H])(NC(=O)c1cc(F)cc(Cl)c1)C1CCN(CC(=O)NC(C([2H])([2H])[2H])(C([2H])([2H])[2H])C([2H])([2H])[2H])CC1` [Compound 5, 3-chloro-N-[dideuterio-[1-[2-oxo-2-[[2,2,2-trideuterio-1,1-bis(trideuteriomethyl)ethyl]amino]ethyl]-4-piperidyl]methyl]-5-fluoro-benzamide], for which, in data set [1], the “% of Control (intrinsic clearance relative to the control compound)” value was 94.1%, the Half-Life is 8.4 min and the CLint is 1.66 µL/min/pmol. Also, in data set [2], the Half-Life is 1400 min and the “% of Control (intrinsic clearance relative to the control compound)” value stood at 93.3%. The hepatocyte CLint at 1 μM in data set [3] (human) came out at 1.32 µL/min/1e6 cells.
Regarding `[2H]C([2H])(C(=O)NC(C)(C)C)N1CCC(CNC(=O)c2cc(F)cc(Cl)c2)CC1` [Compound 6, N-[[1-[2-(tert-butylamino)-1,1-dideuterio-2-oxo-ethyl]-4-piperidyl]methyl]-3-chloro-5-fluoro-benzamide], in data set [1], the “% of Control (intrinsic clearance relative to the control compound)” value is listed as 77.2%, the Half-Life is 10.2 min and the CLint was found to be 1.36 µL/min/pmol. In data set [2], the Half-Life was 1310 min and the “% of Control (intrinsic clearance relative to the control compound)” value amounted to 99.6%. The compound further registered a hepatocyte CLint at 1 μM in data set [3] (human) of 1.41 µL/min/1e6 cells.
Regarding `[2H]C([2H])([2H])C(C)(C)NC(=O)CN1CCC(CNC(=O)c2cc(F)cc(Cl)c2)CC1` [Compound 7, 3-chloro-5-fluoro-N-[[1-[2-oxo-2-[(2,2,2-trideuterio-1,1-dimethyl-ethyl)amino]ethyl]-4-piperidyl]methyl]benzamide], in data set [1], the “% of Control (intrinsic clearance relative to the control compound)” value is listed as 100%, the Half-Life turned out to be 7.9 min and the CLint worked out at 1.76 µL/min/pmol. Besides, in data set [2], the Half-Life was 1310 min and the “% of Control (intrinsic clearance relative to the control compound)” value was found to be 99.6%. In data set [3] (human), this compound yielded a hepatocyte CLint at 1 μM of 1.41 µL/min/1e6 cells.
Turning to `[2H]C1([2H])CN(CC(=O)NC(C([2H])([2H])[2H])(C([2H])([2H])[2H])C([2H])([2H])[2H])CC([2H])([2H])C1CNC(=O)c1cc(F)cc(Cl)c1` [Compound 8, 3-chloro-5-fluoro-N-[[3,3,5,5-tetradeuterio-1-[2-oxo-2-[[2,2,2-trideuterio-1,1-bis(trideuteriomethyl)ethyl]amino]ethyl]-4-piperidyl]methyl]benzamide], in data set [1], the “% of Control (intrinsic clearance relative to the control compound)” value was 88.4%, the Half-Life stood at 8.9 min and the CLint was 1.56 µL/min/pmol. For the same compound, in data set [2], the Half-Life was 1440 min and the “% of Control (intrinsic clearance relative to the control compound)” value is on record as 90.5%. In addition, the hepatocyte CLint at 1 μM in data set [3] (human) was determined as 1.28 µL/min/1e6 cells.
Take `[2H]C1([2H])CN(CC(=O)NC(C)(C)C([2H])([2H])[2H])CC([2H])([2H])C1CNC(=O)c1cc(F)cc(Cl)c1` [Compound 9, 3-chloro-5-fluoro-N-[[3,3,5,5-tetradeuterio-1-[2-oxo-2-[(2,2,2-trideuterio-1,1-dimethyl-ethyl)amino]ethyl]-4-piperidyl]methyl]benzamide]: in data set [1], the “% of Control (intrinsic clearance relative to the control compound)” value came out at 76.6%, the Half-Life was 10.3 min and the CLint was found to be 1.35 µL/min/pmol. In data set [2], the Half-Life was 1570 min and the “% of Control (intrinsic clearance relative to the control compound)” value turned out to be 83.4%. The same compound came in with a hepatocyte CLint at 1 μM in data set [3] (human) of 1.18 µL/min/1e6 cells.
Regarding `[2H]C([2H])(NC(=O)c1cc(F)cc(Cl)c1)C1CCN(CC(=O)NC(C)(C)C([2H])([2H])[2H])CC1` [Compound 10, 3-chloro-N-[dideuterio-[1-[2-oxo-2-[(2,2,2-trideuterio-1,1-dimethyl-ethyl)amino]ethyl]-4-piperidyl]methyl]-5-fluoro-benzamide], in data set [1], the “% of Control (intrinsic clearance relative to the control compound)” value was found to be 81.1%, the Half-Life worked out at 9.7 min and the CLint was found to be 1.43 µL/min/pmol. For the same compound, in data set [2], the Half-Life is 2030 min and the “% of Control (intrinsic clearance relative to the control compound)” value amounted to 64.3%. Also, in data set [3] (human), the hepatocyte CLint at 1 μM was determined as 0.91 µL/min/1e6 cells.
As to `[2H]C([2H])([2H])C(NC(=O)CN1C([2H])([2H])C([2H])([2H])C([2H])(CNC(=O)c2cc(F)cc(Cl)c2)C([2H])([2H])C1([2H])[2H])(C([2H])([2H])[2H])C([2H])([2H])[2H]` [Compound 12, 3-chloro-5-fluoro-N-[[2,2,3,3,4,5,5,6,6-nonadeuterio-1-[2-oxo-2-[[2,2,2-trideuterio-1,1-bis(trideuteriomethyl)ethyl]amino]ethyl]-4-piperidyl]methyl]benzamide], in data set [1], the “% of Control (intrinsic clearance relative to the control compound)” value stood at 60.3%, the Half-Life was determined as 13.1 min and the CLint amounted to 1.06 µL/min/pmol. In addition, in data set [2], the Half-Life came to 2730 min and the “% of Control (intrinsic clearance relative to the control compound)” value is listed as 47.8%. The same compound returned a hepatocyte CLint at 1 μM in data set [3] (human) of 0.676 µL/min/1e6 cells.
